In US20250127699A1, “One Pot Process for Preparing 'Grit-Free' Solid Cleansing Compositions” (GALAXY SURFACTANTS LTD., priority 2023, published 2025):

Key:
Experiment in all cases: Minimum inhibitory concentration
Format in all cases: cell-based
Conditions in all cases: at pH 5.5, 1% solution
[1] = test system: Aspergillus niger ATCC 16404
Excerpt: (§1) These gentle antimicrobials are well-established in personal care industry for their skin and scalp care benefits that stem from their broad range of antimicrobial activity. These are mostly deployed in a variety of ‘liquid’ wash formulations (body wash/hair wash) and sometimes in ‘leave-on’ creams and lotions (anti-acne). […] These two lipidated glycines, alone as well as when combined together, show remarkable activity against Candida albicans and Candida glabrata yeast (vaginal candidiasis, the yeast infection) and Gardnerella vaginalis (a Gram-variable bacterium that is a causative microbe for bacterial vaginosis). […] These two N-acyl glycines, akin to skin fatty acids, are devoid of any structural feature, like halogen atom or a heterocycle, that can be a potential hazard to the environment and living systems. […] The N-acyl glycine alone or in combination can be used up to 4.0% by weight of the total composition. The traditional environmentally toxic chlorinated antimicrobials for cleansing hygiene bars such as Chlorhexidne, Triclosan, Chloroxylenol, Climbazole, Triclocarban (banned in 2017) or other traditional anti-dandruff (antifungal) agents like Climbazole or Octopirox (monoethanol amine salt of piroctone), Zinc pyrithion (now banned in EU) etc. generate unsalvageable waste at every step of the multistep syntheses. In contrast to the facts (hazardous synthesis and toxicity) of traditional antimicrobials for solid cleansers, the lipidated glycines, that are part of solid compositions of the present invention, are manufactured by green chemistry without generating any unsalvageable/non-disposable waste as taught by IN patent 362888. Also, it is to be noted that N-acyl glycines are biodegradable and environmentally benign. These two lipidated glycines (Formula I and Formula II) are organic acids and by adding them in the second stage of processing when the mass of the first stage is being kneaded with limited amount of water in a sigma blender, helps to achieve the desired pH of the final solid cleanser. pH of the final solid cleanser can be brought down from 6.0 to 4.0 by incorporating these acyl glycines at an amount of about 0.5% to 4.0% of the total composition. The two N-acyl glycines can be used individually or in a combination. Examples 1 to 9 deploy either N-capryloyl glycine or N-undecylenoyl glycine, however, Example 10 to 13 use both of N-capryloyl glycine and N-undecylenoyl glycine. Higher % of capryloyl glycine (around 3.0% of the total composition) results in lower pH that is intended for anti-acne or feminine intimate hygiene wash as exemplified in Example 3. Minimum inhibitory concentrations of capryloyl glycine (CG) and undecylenoyl glycine (UG) and their combination (CG-UG) in 1:1 molar ratio using 1% solution at pH 5.5 are given in Table 1. […] The MIC numbers (less than 0.1%) for the N-acyl glycines against Gardnerella bacterium are extremely good. […] The preferred antimicrobials for the solid cleansers of the present invention are the combination of N-capryloyl glycine and N-undecylenoyl glycine in the molar ratio of 1:1.

[2] = test system: Burkholderia cepacia ATCC 25416
Excerpt: as §1

[3] = test system: Candida albicans ATCC 10231
Excerpt: as §1

[4] = test system: Candida glabrata ATCC 66032
Excerpt: as §1

[5] = test system: Corynebacterium xerosis ATCC 373
Excerpt: as §1

[6] = test system: Escherichia coli ATCC 8739
Excerpt: as §1

[7] = test system: Gardnerella vaginalis ATCC 14018
Excerpt: as §1

[8] = test system: Malassezia furfur ATCC 14521
Excerpt: as §1

[9] = test system: Malassezia restricta ATCC MYA 4611
Excerpt: as §1

[10] = test system: Micrococcus luteus NCIM 2103
Excerpt: as §1

[11] = test system: Propionibacterium acnes MTCC 1951
Excerpt: as §1

[12] = test system: Pseudomonas aeruginosa ATCC 15442
Excerpt: as §1

[13] = test system: Staphylococcus aureus ATCC 6538
Excerpt: as §1

[14] = test system: Staphylococcus epidermidis NCIM 2493
Excerpt: as §1

[15] = test system: Staphylococcus hominis MTCC 8980
Excerpt: as §1

Structure (SMILES)	Minimum Inhibitory Concentration [1] [%]	Minimum Inhibitory Concentration [2] [%]	Minimum Inhibitory Concentration [3] [%]	Minimum Inhibitory Concentration [4] [%]	Minimum Inhibitory Concentration [5] [%]	Minimum Inhibitory Concentration [6] [%]	Minimum Inhibitory Concentration [7] [%]	Minimum Inhibitory Concentration [8] [%]	Minimum Inhibitory Concentration [9] [%]	Minimum Inhibitory Concentration [10] [%]	Minimum Inhibitory Concentration [11] [%]	Minimum Inhibitory Concentration [12] [%]	Minimum Inhibitory Concentration [13] [%]	Minimum Inhibitory Concentration [14] [%]	Minimum Inhibitory Concentration [15] [%]
C=CCCCCCCCCC(=O)NCC(=O)O [UG, N-undecylenoyl glycine]	1	1	1	0.9	0.7	0.9	0.06	0.5	0.4	0.5	1	1	0.6	0.4	0.2
CCCCCCCC(=O)NCC(=O)O [CG, N-capryloyl glycine]	1	1	0.6	1	1.	0.7	0.09	0.5	0.4	1	1	1	1	1	0.3
